According to ChEMBL document CHEMBL4765464, “Discovery of BMS-986144, a Third-Generation, Pan-Genotype NS3/4A Protease Inhibitor for the Treatment of Hepatitis C Virus Infection” (J Med Chem, 2020):

Key:
[1] = Inhibition of recombinant full length NS3/4A R155K mutant protease in Hepatitis C virus subtype 1a replicon infected in human HuH7 cells preincubated for 3 days followed by substrate addition and measured after 2 hrs by renilla luciferase reporter gene assay; type: cell-based; settings: Huh-7
[2] = Inhibition of recombinant full length NS3/4A protease in Hepatitis C virus subtype 1b replicon infected in human HuH7 cells preincubated for 3 days followed by substrate addition and measured after 2 hrs by renilla luciferase reporter gene assay; type: cell-based; settings: Huh-7
[3] = Inhibition of recombinant full length NS3/4A D168V mutant protease in Hepatitis C virus subtype 1b replicon infected in human HuH7 cells preincubated for 3 days followed by substrate addition and measured after 2 hrs by renilla luciferase reporter gene assay; type: cell-based; settings: Huh-7
[4] = Metabolic stability in human liver microsomes assessed as half-life incubated for 5 to 45 mins in presence of NADPH by LC-MS analysis; type: ADME, Microsome; settings: time 5-45 min
[5] = Inhibition of recombinant full length NS3/4A protease in Hepatitis C virus subtype 1a replicon infected in human HuH7 cells preincubated for 3 days followed by substrate addition and measured after 2 hrs by renilla luciferase reporter gene assay; type: cell-based; settings: Huh-7
[6] = Inhibition of recombinant full length NS3/4A protease in Hepatitis C virus subtype 2a replicon infected in human HuH7 cells preincubated for 3 days followed by substrate addition and measured after 2 hrs by renilla luciferase reporter gene assay; type: cell-based; settings: Huh-7
[7] = Inhibition of recombinant full length NS3/4A protease in Hepatitis C virus subtype 3a infected in human HuH7 cells using Ac-Asp-Glu-Asp (EDANS)-Glu-Glu-Abu-(COO) Ala-Ser-Lys (DABCYL)-NH2 as substrate by FRET assay; settings: Huh-7
[8] = Inhibition of recombinant full length NS3/4A protease in Hepatitis C virus subtype 3a replicon infected in human HuH7 cells preincubated for 3 days followed by substrate addition and measured after 2 hrs by renilla luciferase reporter gene assay; type: cell-based; settings: Huh-7
[9] = Drug concentration in rat liver at 5 mg/kg, po measured upto 24 hrs; type: ADME, organism-based; settings: read-out: Ct
[10] = AUC in cynomolgus monkey at 3 mg/kg, po or 1 mg/kg, iv; type: ADME, organism-based, Macaca fascicularis; design: dose 3 mg/kg; settings: in vivo
[11] = Clearance in rat at 5 mg/kg, po or 1 mg/kg, iv; type: ADME, organism-based; settings: in vivo
[12] = Drug concentration in rat plasma at 5 mg/kg, po measured upto 24 hrs; type: ADME, organism-based; settings: read-out: Ct
[13] = Oral bioavailability in rat at 5 mg/kg; type: ADME, organism-based; settings: in vivo
[14] = AUC in dog at 3 mg/kg, po or 1 mg/kg, iv; type: ADME, organism-based, Canis lupus familiaris; design: dose 3 mg/kg; settings: in vivo
[15] = Half-life in dog at 3 mg/kg, po or 1 mg/kg, iv; type: ADME, organism-based, Canis lupus familiaris; settings: in vivo
[16] = AUC in rat at 5 mg/kg, po or 1 mg/kg, iv; type: ADME, organism-based; design: dose 5 mg/kg; settings: in vivo
[17] = Drug concentration in dog plasma at 3 mg/kg, po measured upto 24 hrs; type: ADME, organism-based, Canis lupus familiaris; settings: read-out: Ct
[18] = Clearance in dog at 3 mg/kg, po or 1 mg/kg, iv; type: ADME, organism-based, Canis lupus familiaris; settings: in vivo
[19] = Half-life in cynomolgus monkey at 3 mg/kg, po or 1 mg/kg, iv; type: ADME, organism-based, Macaca fascicularis; settings: in vivo
[20] = Cmax in rat at 5 mg/kg, po; type: ADME, organism-based; design: route oral, dose 5 mg/kg; settings: in vivo
[21] = Clearance in rat at 1 mg/kg, iv; type: ADME, organism-based; settings: in vivo
[22] = Ratio of drug concentration in liver to plasma in rat at 5 mg/kg, po measured upto 24 hrs; type: ADME, organism-based; settings: liver and plasma
[23] = AUC (0 to 24 hrs) in rat at 5 mg/kg, po; type: ADME, organism-based; design: time < 24 hr, route oral, dose 5 mg/kg; settings: in vivo
[24] = Half life in rat at 1 mg/kg, iv; type: ADME, organism-based; settings: in vivo

SMILES	EC50 [1]	EC50 [2]	EC50 [3]	half-life [4]	EC50 [5]	EC50 [6]	IC50 [7]	EC50 [8]	other results
COc1cnc(O[C@@H]2C[C@H]3C(=O)N[C@]4(C(=O)NS(=O)(=O)C5CC5)C[C@H]4/C=C\CCCC[C@@H](C)[C@H](NC(=O)OC(C)(C)C(F)(F)F)C(=O)N3C2)c2ccccc12	11.5 nM	0.3 nM	21 nM	18.6 min	0.8 nM	1.5 nM	2.2 nM	37.3 nM	–
C=C[C@@H]1C[C@]1(NC(=O)[C@@H]1C[C@@H](Oc2ncc(OC)c3ccc(Cl)cc23)CN1C(=O)[C@@H](NC(=O)OC(C)(C)C)C(C)(C)C)C(=O)NS(=O)(=O)C1CC1	150 nM	1.2 nM	187 nM	–	4 nM	217 nM	395 nM	407 nM	concentration at 24 h [9]: 15000 nM; AUC [10]: 0.65 µM·h; clearance [11]: 38 mL/min/kg; concentration at 24 h [12]: 33 nM; bioavailability [13]: 14%; AUC [14]: 2.2 µM·h; half-life [15]: 60 min; AUC [16]: 1.2 µM·h; concentration at 24 h [17]: < 10 nM; clearance [18]: 18.7 mL/min/kg; half-life [19]: 78 min
COc1cnc(O[C@@H]2C[C@H]3C(=O)N[C@]4(C(=O)NS(=O)(=O)C5CC5)C[C@H]4/C=C\CCCC[C@@H](C)[C@H](NC(=O)OC(C)(C)C)C(=O)N3C2)c2cc(Cl)ccc12	10.7 nM	0.25 nM	1.9 nM	11.5 min	0.9 nM	1.1 nM	11 nM	75.5 nM	–
COc1cnc(O[C@@H]2C[C@H]3C(=O)N[C@]4(C(=O)NS(=O)(=O)C5CC5)C[C@H]4/C=C\CC[C@@H](C)C[C@@H](C)[C@H](NC(=O)OC(C)(C)C)C(=O)N3C2)c2cc(Cl)ccc12	4 nM	0.6 nM	1.3 nM	6.7 min	1.2 nM	1.2 nM	4.4 nM	–	–
C[C@@H]1CC/C=C\[C@@H]2C[C@@]2(C(=O)NS(=O)(=O)C2CC2)NC(=O)[C@@H]2C[C@@H](Oc3nccc4ccc(F)cc34)CN2C(=O)[C@@H](NC(=O)OC(C)(C)C(F)(F)F)[C@H](C)C1	21 nM	0.3 nM	–	10 min	1 nM	3 nM	20 nM	196 nM	–
COc1cnc(O[C@@H]2C[C@H]3C(=O)N[C@]4(C(=O)NS(=O)(=O)C5CC5)C[C@H]4/C=C\CCCC[C@@H](C)[C@H](NC(=O)OC(C)(C)C(F)(F)F)C(=O)N3C2)c2cc(Cl)ccc12	17.9 nM	0.48 nM	6.8 nM	30.3 min	0.6 nM	1.7 nM	12.8 nM	42.5 nM	–
COc1cnc(O[C@@H]2C[C@H]3C(=O)N[C@]4(C(=O)NS(=O)(=O)C5CC5)C[C@H]4/C=C\CCCCC[C@H](NC(=O)OC(C)(C)C)C(=O)N3C2)c2cc(Cl)ccc12	–	–	–	6.4 min	–	–	51 nM	–	–
CC[C@@H]1C[C@H](C)CC/C=C\[C@@H]2C[C@@]2(C(=O)NS(=O)(=O)C2(C)CC2)NC(=O)[C@@H]2C[C@@H](Oc3ncc(OC)c4ccccc34)CN2C(=O)[C@H]1NC(=O)OC(C)(C)C(F)(F)F	5.4 nM	0.4 nM	5.4 nM	23 min	0.8 nM	1.1 nM	1.9 nM	7.4 nM	concentration at 24 h [9]: 2670 nM; Cmax [20]: 3030 nM; concentration at 24 h [12]: 229 nM; bioavailability [13]: 42%; clearance [21]: 1.7 mL/min/kg; Kp at 24 h [22]: 12; AUC(0-t) at 24 h [23]: 22.5 µM·h; half-life [24]: 438 min
CC[C@@H]1C[C@H](C)CC/C=C\[C@@H]2C[C@@]2(C(=O)NS(=O)(=O)C2CC2)NC(=O)[C@@H]2C[C@@H](Oc3ncc(OC)c4ccccc34)CN2C(=O)[C@H]1NC(=O)OC(C)(C)C	12.6 nM	1.5 nM	18 nM	8.6 min	2.2 nM	5.1 nM	0.16 nM	–	–
CC[C@@H]1C[C@H](C)CC/C=C\[C@@H]2C[C@@]2(C(=O)NS(=O)(=O)C2CC2)NC(=O)[C@@H]2C[C@@H](Oc3ncc(OC)c4ccccc34)CN2C(=O)[C@H]1NC(=O)OC(C)(C)C(F)(F)F	8.3 nM	0.5 nM	17 nM	37.7 min	1 nM	1.5 nM	1.2 nM	8 nM	concentration at 24 h [9]: 2360 nM; Cmax [20]: 2950 nM; concentration at 24 h [12]: 72 nM; bioavailability [13]: 61%; clearance [21]: 5.73 mL/min/kg; Kp at 24 h [22]: 33; AUC(0-t) at 24 h [23]: 18.8 µM·h; half-life [24]: 288 min
COc1cnc(O[C@@H]2C[C@H]3C(=O)N[C@]4(C(=O)NS(=O)(=O)C5(C)CC5)C[C@H]4/C=C\CC[C@@H](C)C[C@@H](C)[C@H](NC(=O)OC(C)(C)C(F)(F)F)C(=O)N3C2)c2ccccc12	1.6 nM	0.3 nM	4.7 nM	15 min	0.8 nM	0.6 nM	0.9 nM	5 nM	concentration at 24 h [9]: 5740 nM; Cmax [20]: 5290 nM; concentration at 24 h [12]: 226 nM; bioavailability [13]: 60%; clearance [21]: 1.7 mL/min/kg; Kp at 24 h [22]: 25; AUC(0-t) at 24 h [23]: 34.2 µM·h; half-life [24]: 342 min
[2H]C([2H])([2H])Oc1cnc(O[C@@H]2C[C@H]3C(=O)N[C@]4(C(=O)NS(=O)(=O)C5(C)CC5)C[C@H]4/C=C\CC[C@@H](C)C[C@@H](C)[C@H](NC(=O)OC(C)(C)C(F)(F)F)C(=O)N3C2)c2ccccc12	1.6 nM	0.4 nM	2.3 nM	18 min	0.6 nM	0.5 nM	–	4 nM	–
CC[C@@H]1CCCC/C=C\[C@@H]2C[C@@]2(C(=O)NS(=O)(=O)C2CC2)NC(=O)[C@@H]2C[C@@H](Oc3ncc(OC)c4ccc(Cl)cc34)CN2C(=O)[C@H]1NC(=O)OC(C)(C)C(F)(F)F	45.2 nM	0.47 nM	4.8 nM	48 min	0.84 nM	2.1 nM	29.5 nM	–	–
COc1cnc(O[C@@H]2C[C@H]3C(=O)N[C@]4(C(=O)NS(=O)(=O)C5CC5)C[C@H]4/C=C\CC[C@H](C)C[C@@H](C)[C@H](NC(=O)OC(C)(C)C)C(=O)N3C2)c2cc(Cl)ccc12	700 nM	4 nM	25 nM	–	5 nM	19 nM	50 nM	–	–
